Data taken from the NIST ThermoML archive (doi:10.1021/acs.jced.8b00168).
Values joined by “and” are separate entries in the source; they are usually repeats but may differ in a detail not shown here. Equal values may be shown once. ± gives the expanded uncertainty stated by the source.

Columns and labels:
[1] = Liquid, DSC
[2] = Boiling temperature at pressure P; conditions: Liquid, DSC

CCCCCCCCCCCCCC(=O)OC [methyl tetradecanoate]
vapor or sublimation pressure ([1]; 437.72 K): 1.72 ± 0.19 kPa

CCCC(=O)OCC(COC(=O)CCC)OC(=O)CCC [1,2,3-propanetriyl tributanoate]
vapor or sublimation pressure ([1]; 459.56 K): 1.69 ± 0.19 kPa

CCCCCCCCC(=O)OCC(CO)OC(=O)CCCCCCCC (configuration not stated) [dinonanoin]
vapor or sublimation pressure ([1]; 532.03 K): 1.7 ± 0.19 kPa
Boiling temperature at pressure P ([2]; 0.54 kPa): 231.07 ± 2.4 °C
Boiling temperature at pressure P ([2]; 1.42 kPa): 253.1 ± 3.1 °C
Boiling temperature at pressure P ([2]; 1.74 kPa): 258.40 ± 2.4 °C
Boiling temperature at pressure P ([2]; 2.14 kPa): 263.86 ± 2.6 °C
Boiling temperature at pressure P ([2]; 2.63 kPa): 269.97 ± 2.8 °C

CCCCCCCCCCCCCCCCCCCCCCCCCCCC [octacosane]
vapor or sublimation pressure ([1]; 550.62 K): 1.7 ± 0.17 kPa

CCCCCCCCCCCCCCCCCCO [1-octadecanol]
vapor or sublimation pressure ([1]; 483.46 K): 1.73 ± 0.19 kPa

CCCCCCCCC(=O)OCC(O)CO (configuration not stated) [2,3-dihydroxypropyl nonanoate]
vapor or sublimation pressure ([1]; 478.88 K): 1.69 ± 0.19 kPa

CCCCCCCCCCCCCCCCO [1-hexadecanol]
vapor or sublimation pressure ([1]; 462.29 K): 1.73 ± 0.17 kPa and 1.72 ± 0.17 kPa
